Laboratory results as given in patent US6329378A, “Hydrazone, hydrazine and thiosemicarbazone derivatives as antifungal agents” (Anadys Pharmaceuticals, Inc., priority 2000, dated 2001).
Converted amounts (≈) assume the structure as drawn.

Experiments:
A. Nidulans = assay: MIC, broth microdilution (NCCLS M27-A), A. nidulans; assay type: cell-based; conditions: 35° C., 48 hours; for MIC: Aspergillus nidulans
Protocol: (§1) Compounds of the invention were tested for antifungal susceptibility using broth microdilution assay established by the National Committee for Clinical Laboratory Standards, in NCCLS Document M27-A, which is hereby incorporated by reference. Minimum inhibitory concentrations (MICs) and minimum fungicidal concentrations (MFCs) were measured.
Filamentous fungi (Aspergillus spp.) is cultured on PDA plates in a 35° C. incubator. Inoculum of Aspergillus for susceptibility testing is prepared from plates incubated at 35° C. for 5 days. Colonies are covered with 5 ml of sterile 0.85% saline (8.5 g/liter NaCl) and gently rocked for 10-15 minutes. To dislodge the conidia, an automatic pipettor is used to gently wash over the colonies. The saline solution is removed from the plate and the heavy particles are allowed to settle for 3-5 minutes. The upper suspension is removed and vortexed for 15 sec. The turbidity of the solution is determined by measuring the absorbance in a spectrophotometer (Shimadzu UV-1201S UV-VIS Spectrophotometer) set at 600 nm. An absorbance value between 0.1 and 0.4 is required for an accurate reading.
The cell suspension is diluted with the appropriate medium (typically RPMI-1640) to OD600 =0.0004. The final suspension should contain approximately 3×10^3 cfu per ml (this is a 2×concentrationinoculum). Two 100 μl aliquots of this dilution are spread on SDA plates and incubated at 35° C. for 1-2 days to determine the precise number of colony forming units. An acceptable range for the inoculum (2×) is 1-5×10^3 cfu/ml (100-500 for 100 μl). Following two-fold dilution of the inoculum with compound, the final concentration of cells will be 0.5-2.5×10^3 per ml. The inoculum is kept at 4° C. and used within a few hours.
(§2) Stock solutions and concentrations tested will vary from compound to compound. In general, though, stock solutions of 12.8 mg/ml in DMSO (Sigma D-8779) are prepared. This will allow for a 128 μg/ml starting test concentration containing 1% DMSO. Stock solutions are stored at -20° C. and dilutions for antifungal testing are freshly prepared before each assay.
(§3) Stock solutions of Amphotericin B and Itraconazole are prepared at 1.6 mg/ml in DMSO. Amphotericin B is sold as a powder that is approximately 80% Amphotericin B. Stock solutions are made accordingly (2.0 mg of powder for a 1 ml solution of 1.6 mg/ml Amphotericin B).
(§4) Both of these (control and test compounds) represent 1:50 dilutions. For an assay with three fungal strains, 40 microliters of a stock solution are diluted to 2.0 ml with room temperature medium.
(§5) Antifungal susceptibility tests are setup in polystyrene, 96-well, flat bottom plates (Costar 9017). To every well in columns 2-12 is added 100 microliters of media. An electronic multichannel (12) pipettor with no tip on channel one is used. To every well in column one is added 200 microliters of diluted compound (32 μg/ml for Amphotericin B and Itraconazole controls, 256 μg/ml for test compounds, 100-fold dilution for natural product extracts). A manual multichannel (8) pipettor is then used to set up a series of 2-fold dilutions. 100 microliters is removed from each well of column one and mixed with 100 microliters in column 2. This is done successively (column two to column three etc.) to produce a set of 11 serial dilutions (column 12 is a drug free control).
(§6) To every well in two rows, 100 μl of inoculum (2×) of a single strain is added. To the final two rows on the plate (G & H), only media is added. Addition of inoculum is best accomplished using an electronic multichannel (12) pipettor. This setup (see below) creates a starting cell density of […] (100-500 per well) and drug concentration ranging from 16 μg/ml to […] for controls (Amphotericin B and Itraconazole), 128 μg/ml to 0.125 μg/ml for pure test compounds, and 200 to 204, 800-fold dilutions for natural product extracts.

S. serevisiae = assay: MIC, broth microdilution (NCCLS M27-A), S. cerevisiae; assay type: cell-based, Saccharomyces cerevisiae; conditions: for MIC S. serevisiae: broth microdilution, 35° C., 48 hours, S. cerevisiae CTY552; for MIC: Saccharomyces cerevisiae, 48 h, read-out: MIC S. serevisiae
Protocol: as §1
(§7) Yeasts (Saccharomyces cerevisiae and Candida albicans) are cultured on SDA plates in a 35° C. incubator. Strains on SDA plates are stored at 4° C. and used as working stock cultures.
(§8) Inoculum for susceptibility testing is prepared from fresh 24 hour cultures. 5-10 colonies are scraped from the plate and suspended in three milliliters of sterile 0.85% saline (8.5 g/liter NaCl). The cell density of the solution is determined by measuring the absorbance in a spectrophotometer (Shimadzu UV-1201S UV-VIS Spectrophotometer) set at 600 nm. An absorbance value between 0.1 and 0.4 is required for an accurate reading.
(§9) For Candida albicans strains ATCC 10231, 1.0 OD600 unit is approximately 10^7 cells per ml. For Saccharomyces cerevisiae strain CTY552, 1.0 OD600 unit is slightly less than 10^7 cells per ml. Cell suspensions are diluted with the appropriate medium (typically RPMI-1640) to OD600 =0.0003 for Candida and OD600 =0.0004 for Saccharomyces. The diluted suspension contains approximately 3×10^3 cells per ml (this is a 2×concentration inoculum). Two 100 μl aliquots of this dilution are spread on SDA plates and incubated at 35° C. for 1-2 days to determine the precise number of colony forming units. An acceptable range for the inoculum (2×) is 1-5×10^3 cfu/ml (100-500 for 100 μl). Following two-fold dilution of the inoculum with compound, the final concentration of cells will be 0.5-2.5×10^3 per ml. The inoculum is kept at 4° C. and used within a few hours.
as §2, §3
Stock solutions of control compounds (1.6 mg/ml, Amphotericin B or Itraconazole) are initially diluted in medium to a concentration of 32 μg/ml while stock solutions of test compounds (typically 12.8 mg/ml) are diluted to 256 μg/ml. Both of these (control and test compounds) represent 1:50 dilutions. For an assay with three fungal strains, 40 microliters of a stock solution are diluted to 2.0 ml with room temperature medium.
as §5
To every well in two rows, 100 μl of inoculum (2×) of a single strain is added. To the final two rows on the plate (G & H), only media is added. Addition of inoculum is best accomplished using an electronic multichannel (12) pipettor. […]

C. albicans = assay: MIC, broth microdilution (NCCLS M27-A), C. albicans; assay type: cell-based, Candida albicans; conditions: 48 hours, C. albicans ATCC 10231; for MIC C. albicans: 35° C.; for MIC: Candida albicans, ATCC10231, 35° C.
Protocol: as §1, §7, §8, §9, §2, §3, §4, §5, §6

Compound	MIC A. Nidulans (A. Nidulans) [mg/L]	MIC S. serevisiae (S. serevisiae) [mg/L]	MIC C. albicans (C. albicans) [mg/L]	MIC (A. Nidulans) [mg/L]	MIC (S. serevisiae) [mg/L]	MIC (C. albicans) [mg/L]
2-pyridyl-benzaldehyde-N-(3-methoxy-2-pyrazinyl)hydrazine [(34)]	1	1	2			
3-carboxyl-2-hydroxybenzaldehyde-N-(3-methoxy-2-phenyl)hydrazine [(17)]	> 128	> 128	> 128			
COc1cc(O)c(C=NNc2nccnc2OC)c(OC)c1 [(5)]				2 (≈ 6.57 µM)	1 (≈ 3.29 µM)	1 (≈ 3.29 µM)
COc1nccnc1NN=Cc1cccc(O)c1O [(6)]				1 (≈ 3.84 µM)	1 (≈ 3.84 µM)	2 (≈ 7.68 µM)
COc1nccnc1NN=Cc1ccc(O)cc1O [(7)]				2 (≈ 7.68 µM)	1 (≈ 3.84 µM)	1 (≈ 3.84 µM)
COc1nccnc1N/N=C/c1ccc(O)c(O)c1O [(8)]				> 128	2 (≈ 7.24 µM)	4 (≈ 14.5 µM)
COc1nccnc1N/N=C/c1ccc2ccccc2n1 [(9)]				16 (≈ 57.3 µM)	8 (≈ 28.6 µM)	8 (≈ 28.6 µM)
O=C(O)c1ccc(O)c(C=NNc2ccccc2)c1 [(18), 5-carboxyl-2-hydroxybenzaldehyde-N-phenyl hydrazone]				0.125 (≈ 0.488 µM)	1 (≈ 3.9 µM)	1 (≈ 3.9 µM)
Oc1ccccc1C=NNc1ccccc1 [(19), 2-hydroxybenzaldehyde-N-phenyl hydrazone]				0.125 (≈ 0.589 µM)	1 (≈ 4.71 µM)	1 (≈ 4.71 µM)
O=C(O)c1ccc(O)c(C=NNc2cccc([N+](=O)[O-])c2)c1 [(20), 5-carboxyl-2-hydroxybenzaldehyde-N-3-nitro-phenyl hydrazone]				2 (≈ 6.64 µM)	16 (≈ 53.1 µM)	8 (≈ 26.6 µM)
O=C(O)c1ccc(O)c(C=NNc2ccccc2OC(F)(F)F)c1 [(21), 5-carboxyl-2-hydroxybenzaldehyde-N-2-trifluoromethyloxy-phenyl hydrazone]				1 (≈ 2.94 µM)	1 (≈ 2.94 µM)	2 (≈ 5.88 µM)
O=C(O)c1ccc(O)c(C=NNc2ccccc2C(=O)O)c1 [(22), 5-carboxyl-2-hydroxybenzaldehyde-N-2-carboxyl-phenyl hydrazone]				> 64	> 64	> 64
O=C(O)c1ccc(O)c(C=NNc2cccc(F)c2)c1 [(23), 5-carboxyl-2-hydroxybenzaldehyde-N-3-fluorophenyl hydrazone]				0.125 (≈ 0.456 µM)	2 (≈ 7.29 µM)	2 (≈ 7.29 µM)
O=C(O)c1ccc(O)c(C=NNc2ccccc2F)c1 [(24), 5-carboxyl-2-hydroxybenzaldehyde-N-2-fluoro-phenyl hydrazone]				0.063 (≈ 0.23 µM)	0.5 (≈ 1.82 µM)	0.25 (≈ 0.912 µM)
O=C(O)c1ccc(O)c(C=NNc2ccccc2Br)c1 [(25), 5-carboxyl-2-hydroxybenzaldehyde-N-2-bromophenyl hydrazone]				1 (≈ 2.98 µM)	2 (≈ 5.97 µM)	2 (≈ 5.97 µM)
